Experimental data published in patent US20230278981A1, “DICHLOROPHENOL HSD17B13 INHIBITORS AND USES THEREOF” (INIPHARM, INC., priority 2020, published 2023).
pIC50: −log10 of the molar value.

What follows are compounds tested against HSD17B13 (Homo sapiens (Human), UniProt Q7Z5P4) (assay: LC/MS estrone detection assay: conversion of estradiol to estrone by HSD17B13). Details: 4 μM estradiol, 6 mM NAD+, 30 nM HSD17B13 enzyme (E. coli expressed His-tagged), 2 hours at 26.5° C.
Format: biochemical
Method: The liquid chromatography/mass spectrometry (LC/MS) estrone detection assay monitors the conversion of estradiol to estrone by HSD17B13. This assay was undertaken in a 96wp format (Eppendorf deep well Plate 96/500) in an 80 μl reaction volume containing: 4 μM of Estradiol (E2; Cayman; Ser. No. 10/006,315), 6 mM NAD+(Sigma; #N0623) and 30 nM HSD17B13 enzyme (in-house; E. coli expressed His-tagged, purified, soluble protein) in a reaction containing […] potassium phosphate buffer pH 7.4, with 0.5% vehicle (DMSO). Reactions were incubated for 2 hours at 26.5° C., and estradiol (E2) conversion to estrone (E1) was quantitated by LC-MS/MS based analyte detection for both E2 and E1 using LCMS grade reagents.
Reactions were terminated by the addition of two volumes of acetonitrile (MeCN; LCMS grade; CAS #75/05/8) containing deuterated (D4)-E1 used as internal standard (Clear Synth; #CS-T-54273; 500 ng/mL final concentration). Samples were applied to pre-prepared Bond Elut-C18 extraction cartridges (3 mL; Agilent; Ser. No. 12/102,028), washed and eluted in MeCN. Eluates were dried under nitrogen and re-suspended in 60% methanol (LCMS grade methanol; CAS #67/56/1) before submission for analysis. Aqueous linearity for E2 and E1 were included for quantification.
Analysis of samples was undertaken on a XBridge BEH C18 column (Waters; #186003033) using 0.1% Diethyl Amine in MeCN (mobile phase A; DEA CAS #109-89-7) and 0.1% Diethyl Amine in milli-Q water (mobile phase B) in a 3 min gradient allowing 25% B. Analytes were detected in negative mode using MRM analysis, with E2 having a RT of 1.85 min and E1 having a RT of 2 min. Activity of the enzyme, in the absence of NAD^+, was used to evaluate specificity of conversion. Enzyme activity in the presence of test samples was expressed as a percentage of the uninhibited enzyme activity, and plotted versus inhibitor concentration. Non-linear regression was performed using a four-parameter logistic model and GraphPad Prism software (GraphPad Software, La Jolla, Calif.). All assessments were undertaken in duplicate evaluations and pooled during extraction process and subsequently injected as duplicates for LC-MS/MS analysis.

Sequence of HSD17B13 (Q7Z5P4 20-300): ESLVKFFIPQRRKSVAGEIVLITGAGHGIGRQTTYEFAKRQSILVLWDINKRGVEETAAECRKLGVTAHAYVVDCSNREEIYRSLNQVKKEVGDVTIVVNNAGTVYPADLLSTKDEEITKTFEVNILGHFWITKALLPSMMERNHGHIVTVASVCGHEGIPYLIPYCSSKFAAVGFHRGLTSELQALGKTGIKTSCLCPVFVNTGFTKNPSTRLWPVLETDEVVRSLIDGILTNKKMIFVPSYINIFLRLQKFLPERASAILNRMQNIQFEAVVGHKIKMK

pIC50	Compound
≥ 7.00	Cc1ccc(NC(=O)c2cc(Cl)c(O)c(Cl)c2)c2c(=O)n(Cc3ccccc3OC(F)(F)F)c(C)nc12 [Example 89, 3,5-dichloro-N-(2,8-dimethyl-4-oxo-3-(2-(trifluoromethoxy)benzyl)-3,4-dihydroquinazolin-5-yl)-4-hydroxybenzamide]
6.30 to 7.00	O=C(Nc1cccc2ncn(Cc3ccccc3)c(=O)c12)c1cc(Cl)c(O)c(Cl)c1 [Example 1, N-(3-benzyl-4-oxo-3,4-dihydroquinazolin-5-yl)-3,5-dichloro-4-hydroxybenzamide]
6.30 to 7.00	O=C(Nc1ccc(F)c2ncn(Cc3ccccc3OC(F)(F)F)c(=O)c12)c1cc(Cl)c(O)c(Cl)n1 [Example 133, 4,6-dichloro-N-(8-fluoro-4-oxo-3-{[2-(trifluoromethoxy)phenyl]methyl}-3,4-dihydroquinazolin-5-yl)-5-hydroxypyridine-2-carboxamide]
≥ 7.00	[2H]C([2H])([2H])c1nc2c(C)ccc(NC(=O)c3cc(Cl)c(O)c(Cl)c3)c2c(=O)n1Cc1ccccc1OC(F)(F)F [Example 169, 3,5-dichloro-4-hydroxy-N-(8-methyl-2-(methyl-d3)-4-oxo-3-(2-(trifluoromethoxy)benzyl)-3,4-dihydroquinazolin-5-yl)benzamide]
6.00 to 6.30	Cc1ccc(NC(=O)c2cc(Cl)c(O)c(Cl)n2)c2c(=O)n(Cc3cccc(C(F)(F)F)n3)c(C)nc12 [Example 205, 4,6-dichloro-N-(2,8-dimethyl-4-oxo-3-((6-(trifluoromethyl)pyridin-2-yl)methyl)-3,4-dihydroquinazolin-5-yl)-5-hydroxypicolinamide]
6.30 to 7.00	Cc1nc2c(Cl)ccc(NC(=O)c3cc(Cl)c(O)c(Cl)c3)c2c(=O)n1Cc1ncccc1C(F)(F)F [Example 166, 3,5-dichloro-N-(8-chloro-2-methyl-4-oxo-3-((3-(trifluoromethyl)pyridin-2-yl)methyl)-3,4-dihydrjoquinazolin-5-yl)-4-hydroxybenzamide]
6.30 to 7.00	O=C(Nc1scnc1C(=O)NCc1ccccc1F)c1cc(Cl)c(O)c(Cl)c1 [Example 33, 5-(3,5-dichloro-4-hydroxybenzamido)-N-(2-fluorobenzyl)thiazole-4-carboxamide]
6.30 to 7.00	COc1ccccc1Cn1cnc2cccc(NC(=O)c3cc(Cl)c(O)c(Cl)c3)c2c1=O [Example 5, 3,5-dichloro-4-hydroxy-N-(3-(2-methoxybenzyl)-4-oxo-3,4-dihydroquinazolin-5-yl)benzamide]
6.30 to 7.00	O=C(Nc1cccc2ncn(Cc3cccc(F)c3)c(=O)c12)c1cc(Cl)c(O)c(Cl)c1 [Example 16, 3,5-dichloro-N-(3-(3-fluorobenzyl)-4-oxo-3,4-dihydroquinazolin-5-yl)-4-hydroxybenzamide]
5.00 to 6.00	O=C(Nc1cccc2ncn(Cc3nncs3)c(=O)c12)c1cc(Cl)c(O)c(Cl)c1 [Example 39, N-(3-((1,3,4-thiadiazol-2-yl)methyl)-4-oxo-3,4-dihydroquinazolin-5-yl)-3,5-dichloro-4-hydroxybenzamide]
6.30 to 7.00	O=C(Nc1cccc2ncn(Cc3ccc(C(F)(F)F)nc3)c(=O)c12)c1cc(Cl)c(O)c(Cl)c1 [Example 19, 3,5-dichloro-4-hydroxy-N-(4-oxo-3-((6-(trifluoromethyl)pyridin-3-yl)methyl)-3,4-dihydroquinazolin-5-yl)benzamide]
6.30 to 7.00	Cc1nsc(NC(=O)c2cc(Cl)c(O)c(Cl)c2)c1C(=O)NCc1ccccc1F [Example 31, 5-(3,5-dichloro-4-hydroxybenzamido)-N-(2-fluorobenzyl)-3-methylisothiazole-4-carboxamide]
≥ 7.00	Cc1ccc(NC(=O)c2cc(Cl)c(O)c(Cl)c2)c2c(=O)n(Cc3ccccc3OC(F)(F)F)c(C(F)F)nc12 [Example 149, 3,5-dichloro-N-(2-(difluoromethyl)-8-methyl-4-oxo-3-(2-(trifluoromethoxy)benzyl)-3,4-dihydroquinazolin-5-yl)-4-hydroxybenzamide]
≥ 7.00	O=C(Nc1cccc2ncn(Cc3ncccc3C(F)(F)F)c(=O)c12)c1cc(Cl)c(O)c(Cl)c1 [Example 75, 3,5-dichloro-4-hydroxy-N-(4-oxo-3-((3-(trifluoromethyl)pyridin-2-yl)methyl)-3,4-dihydroquinazolin-5-yl)benzamide]
6.30 to 7.00	Cc1ccc(NC(=O)c2cc(Cl)c(O)c(Cl)n2)c2c(=O)n(Cc3ncccc3C(F)(F)F)c(C)nc12 [Example 153, 4,6-dichloro-N-(2,8-dimethyl-4-oxo-3-((3-(trifluoromethyl)pyridin-2-yl)methyl)-3,4-dihydroquinazolin-5-yl)-5-hydroxypicolinamide]
5.00 to 6.00	O=C(NCc1ccccc1OC(F)(F)F)C1CCCCN1C(=O)c1cc(Cl)c(O)c(Cl)n1 (centres unmarked) [Example 120, 1-(4,6-dichloro-5-hydroxypicolinoyl)-N-(2-(trifluoromethoxy)benzyl) piperidine-2-carboxamide]
6.30 to 7.00	O=C(Nc1cccc2nc(C(F)(F)F)n(Cc3ccccc3OC(F)(F)F)c(=O)c12)c1cc(Cl)c(O)c(Cl)c1 [Example 70, 3,5-dichloro-4-hydroxy-N-(4-oxo-3-(2-(trifluoromethoxy)benzyl)-2-(trifluoromethyl)-3,4-dihydroquinazolin-5-yl)benzamide]
≥ 7.00	COc1ccccc1CCNC(=O)c1sccc1NC(=O)c1cc(Cl)c(O)c(Cl)c1 [Example 35, 3-(3,5-dichloro-4-hydroxybenzamido)-N-(2-methoxyphenethyl)thiophene-2-carboxamide]
≥ 7.00	Cc1nsc(NC(=O)c2cc(Cl)c(O)c(Cl)c2)c1C(=O)N[C@@H](C)c1ccccc1F [Example 126, (S)-5-(3,5-dichloro-4-hydroxybenzamido)-N-(1-(2-fluorophenyl)ethyl)-3-methylisothiazole-4-carboxamide]
6.30 to 7.00	O=C(Nc1ncsc1C(=O)NC1(c2ccc(F)cc2)CC1)c1cc(Cl)c(O)c(Cl)c1 [Example 29, 4-(3,5-dichloro-4-hydroxybenzamido)-N-(1-(4-fluorophenyl)cyclopropyl)thiazole-5-carboxamide]
6.30 to 7.00	[2H]C([2H])([2H])c1nc2c(F)ccc(NC(=O)c3cc(Cl)c(O)c(Cl)n3)c2c(=O)n1Cc1ccccc1C(F)(F)F [Example 184, 4,6-dichloro-N-(8-fluoro-2-(methyl-d3)-4-oxo-3-(2-(trifluoromethyl)benzyl)-3,4-dihydroquinazolin-5-yl)-5-hydroxypicolinamide]
≥ 7.00	O=C(Nc1ccc(F)c2ncn(Cc3ccccc3C(F)(F)F)c(=O)c12)c1cc(Cl)c(O)c(Cl)c1 [Example 204, 3,5-dichloro-N-(8-fluoro-4-oxo-3-(2-(trifluoromethyl)benzyl)-3,4-dihydroquinazolin-5-yl)-4-hydroxybenzamide]
≥ 7.00	O=C(Nc1cccc2ncn(Cc3ncccc3Cl)c(=O)c12)c1cc(Cl)c(O)c(Cl)c1 [Example 143, 3,5-dichloro-N-(3-((3-chloropyridin-2-yl)methyl)-4-oxo-3,4-dihydroquinazolin-5-yl)-4-hydroxybenzamide]
≥ 7.00	O=C(Nc1cccc2ncn(Cc3ccccc3OC(F)(F)F)c(=O)c12)c1cc(Cl)c(O)c(Cl)c1 [Example 2, 3,5-dichloro-4-hydroxy-N-(4-oxo-3-(2-(trifluoromethoxy)benzyl)-3,4-dihydroquinazolin-5-yl)benzamide]
≥ 7.00	O=C(Nc1cc(Cl)sc1C(=O)NCc1ccccc1OC(F)(F)F)c1cc(Cl)c(O)c(Cl)c1 [Example 37, 5-chloro-3-(3,5-dichloro-4-hydroxybenzamido)-N-(2-(trifluoromethoxy)benzyl) thiophene-2-carboxamide]
6.30 to 7.00	O=C(Nc1cccc2ncn(Cc3cccnc3F)c(=O)c12)c1cc(Cl)c(O)c(Cl)n1 [Example 138, 4,6-dichloro-N-{3-[(2-fluoropyridin-3-yl)methyl]-4-oxo-3,4-dihydroquinazolin-5-yl}-5-hydroxypyridine-2-carboxamide]
≥ 7.00	[2H]C([2H])(c1ccccc1C(F)(F)F)n1c(C)nc2c(C)ccc(NC(=O)c3cc(Cl)c(O)c(Cl)c3)c2c1=O [Example 200, 3,5-dichloro-N-(2,8-dimethyl-4-oxo-3-((2-(trifluoromethyl)phenyl)methyl-d2)-3,4-dihydroquinazolin-5-yl)-4-hydroxybenzamide]
6.30 to 7.00	O=C(Nc1ncsc1C(=O)NCc1ccccc1C(F)(F)F)c1cc(Cl)c(O)c(Cl)c1 [Example 26, 4-(3,5-dichloro-4-hydroxybenzamido)-N-(2-(trifluoromethyl)benzyl)thiazole-5-carboxamide]
6.30 to 7.00	CC(C)(C)CCNC(=O)c1ccccc1NC(=O)c1cc(Cl)c(O)c(Cl)c1 [Example 71, 3,5-dichloro-N-(2-((3,3-dimethylbutyl)carbamoyl)phenyl)-4-hydroxybenzamide]
